Assay [1] deals with neuraminidase (NA) of influenza B/England/598/2014 (WT-H273) (Influenza B virus, UniProt A0A1S5RAG6). It is filed as biochemical.
Assay [2] concerns the target neuraminidase (NA) of influenza B/Minnesota/23/2015 (WT-D197) (Influenza B virus, UniProt A0A1S5RAG6). The class given is biochemical. The note with it: three independent experiments, read-out: IC50 (nM), mean ± SD.

The structures appear in SMILES notation. Where two headings read alike, the source gives them in different places.

neuraminidase (NA) of influenza B/England/598/2014 (WT-H273), sequence (A0A1S5RAG6 entry or part of it, added parts left off): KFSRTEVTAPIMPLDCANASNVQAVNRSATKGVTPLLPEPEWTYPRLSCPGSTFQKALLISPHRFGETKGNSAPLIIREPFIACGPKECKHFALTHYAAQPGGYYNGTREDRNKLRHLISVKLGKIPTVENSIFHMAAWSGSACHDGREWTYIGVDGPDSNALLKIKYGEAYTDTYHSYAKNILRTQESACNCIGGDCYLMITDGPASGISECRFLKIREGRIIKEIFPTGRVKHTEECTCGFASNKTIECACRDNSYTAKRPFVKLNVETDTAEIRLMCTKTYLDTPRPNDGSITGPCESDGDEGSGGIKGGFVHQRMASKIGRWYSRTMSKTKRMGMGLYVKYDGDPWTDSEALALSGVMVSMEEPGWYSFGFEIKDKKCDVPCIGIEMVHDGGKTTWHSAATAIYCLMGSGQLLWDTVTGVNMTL
neuraminidase (NA) of influenza B/Minnesota/23/2015 (WT-D197), sequence (A0A1S5RAG6 entry or part of it, added parts left off): as above

One may read the IC50 as the midpoint of a concentration-inhibition curve. With `CCC(CC)[C@H](NC(C)=O)[C@@H]1[C@H](O)[C@@H](C(=O)O)C[C@H]1N=C(N)N` [Peramivir, peramivir], the IC50 is 1 ± 0.05 nM in assay [1] (WT-H273 virus, three independent experiments, read-out: IC50 (nM), mean ± SD); around 1 nM in assay [1] (approximate value given in discussion for wild-type influenza B viruses, read-out: IC50 for wild-type influenza B viruses); 1 ± 0.1 nM in assay [2].

The values are drawn from publication PMC6201084 (Antimicrobial Agents and Chemotherapy, 2018).
